The values that follow come from PubChem BioAssay (NCI).

Where “and” joins values, the source holds several entries; their conditions need not be identical. Equal values may be shown once.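 All cell lines were grown in 96-well plates and treated with compound for 48 hours. Abbreviation: GI50, concentration required for 50% inhibition of growth. TGI: concentration producing complete growth inhibition.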

Holding throughout (experiment): NCI tumour cell line growth inhibition, 48 h
The test system of test [1] is M19-MEL melanoma.
The subject of test [2] is SF-268 CNS.
Test [3] deals with SF-295 CNS.
The test system of test [4] is HOP-62 NSCLC.
Test [5] relates to NCI-H522 lung.
Test [6] relates to COLO 205 colon.
For test [7], the system named is K-562 leukemia.
Test [8] deals with SNB-78 CNS.
Test [9] deals with SNB-75 CNS.
Test [10] relates to NCI/ADR-RES ovarian.

In the case of `CC1CCCc2c1c1ccc3c(O)cccc3c1oc2=O` (stereo not drawn), the TGI in [1] was over 100 µM; in test [2], 70.8 µM; in test [3], 33.8 µM; in test [4] it was 54.1 µM; in test [5], 55.8 µM; in [6], over 100 µM. The TGI in test [7] is over 100 µM; in test [8], over 100 µM; in [9], 21.8 µM.

Turning to `CC1[C@@H]2CC=C3[C@H]4CCC5Cc6nc7c(nc6C[C@@]5(C)C4(O)CC(=O)[C@]32CO[C@]12OC(C)(C)CC2O)CC1CC[C@@H]2C3=C[C@H]4O[C@@]5(O[C@@](C)(CO)C[C@@H]5O)C(C)[C@@]4(O)[C@]3(C)[C@@H](O)CC2[C@]1(C)C7` (stereo partly drawn), the GI50 was 0.329 µM and 2.05 µM in test [1]; 0.000194 µM and 0.00144 µM in test [2]; under 0.00036 µM in [3]; 0.000104 µM and 0.00036 µM in test [4]; 0.000149 µM and 0.00112 µM in test [7]; 0.00036 µM in test [9]. Also, the TGI in [1] was over 3.6 µM; in test [10] it was over 3.6 µM; in [2], 0.309 µM and 0.672 µM; in test [3], 0.000131 µM and < 0.00036 µM; in test [4] it was 0.000831 µM and 0.00257 µM; in [6], 0.00658 µM and 0.0644 µM. Also, in test [7], the TGI is 0.021 µM and 0.0595 µM.

Turning to `CS/C(c1ccccc1)=[N+](\[O-])Cc1ccccc1`, the TGI in test [1], in [2], in test [3], in test [4], in test [5] and in test [6] was over 100 µM throughout. The TGI in [7], in test [8] and in test [9] was over 100 µM throughout.

With `CC(=O)/C=C1\CC(=O)Nc2ccccc2N1`, the TGI in test [2], in [3], in [7], in [8] and in [9] was over 100 µM each time.

Consider `COc1ccc2c(CCNC(=O)/C=C/c3ccccc3)c(C(C)=O)[nH]c2c1[N+](=O)[O-]`, for which the TGI in test [2] was 9.08 µM; in test [3], 12.7 µM; in [4] it was 76.2 µM; in test [5] it was 18.9 µM; in [6], over 100 µM; in test [7] it was over 100 µM. The molecule also returned a TGI in [8] of over 100 µM.

Turning to `CC(=O)OC1CCC2C(=CCC3C2(C)C(=O)CC2(C)C(C4(C)OC(C(C)C)=CC4=O)C(O)CC32C)C1(C)C` (stereo not drawn), the TGI in [1] is 47.7 µM; in [2] it was over 100 µM; in test [4] it was over 100 µM; in [5] it was over 100 µM; in test [6], over 100 µM; in [7], over 100 µM. The TGI in test [8] and in test [9] was over 100 µM throughout.

On to `CCN(CC)c1ccc(N=C2C=C(Cl)C(=O)c3ncccc32)c(C)c1`, for which the TGI is 68.5 µM in [1]; 35.9 µM in test [3]; 25 µM in [4]; 15.8 µM in test [6]; 11.1 µM in [7]; 43.4 µM in test [8]. The molecule also had a TGI in test [9] of 88.3 µM.

For the molecule `O=C(Nc1ccc(Br)cc1)C(=O)C(C(=O)c1ccccc1F)C1OC(=O)c2ccccc21` (stereo not drawn), the TGI was 42.7 µM in [1]; 71.5 µM in [2]; 50.8 µM in test [4]; 51.6 µM in test [5]; 45.2 µM in [6]; over 100 µM in [7]. Further, the TGI in [8] worked out at 72.6 µM; in [9], 51.6 µM.

As for `CCOC(=O)c1ccc(N2C(=O)Cc3ccccc3C2=O)cc1`, the TGI in [1], in [2], in [3], in test [7], in test [8] and in test [9] was over 100 µM each time.

`OCC(O)C(O)C(O)c1nn(-c2ccccc2)c2nc3cc(Cl)c(Cl)cc3nc12` (stereo not drawn): the TGI in test [1], in test [2], in test [3], in test [4], in test [5] and in test [6] was over 100 µM throughout. In addition, the TGI in [7] was 44.1 µM; in [8], over 100 µM; in test [9] it was 47.8 µM.

Consider `O=C(NC1C2CC3CC(C2)CC1C3)/C(Cl)=C1/Sc2ccccc2NC1=O` (stereo not drawn), for which the TGI in test [1], in test [2], in test [3], in [4], in test [5] and in test [6] was over 100 µM throughout. In addition, the TGI in test [7], in test [8] and in [9] was over 100 µM throughout.

Regarding `O=C(Nc1nc2ccc([N+](=O)[O-])cc2s1)C(=O)C(C(=O)c1ccncc1)C1OC(=O)c2ccccc21` (stereo not drawn), the TGI in test [1], in test [2], in test [4], in test [6], in test [7] and in test [8] was over 100 µM in each case. In [9], the TGI is over 100 µM.

Consider `CC(C)C(=O)[O-].CC(C)C(=O)[O-].N.N.N.N.[Co+3].[O-][Cl+3]([O-])([O-])[O-]`, for which the GI50 in test [2], in [3], in test [4], in [5], in [6] and in test [7] was over 100 µM in each case. The GI50 in test [8] and in test [9] was over 100 µM throughout. For the same molecule, the TGI in test [2], in [3], in test [4], in test [5], in test [6] and in [7] was over 100 µM in each case. The TGI in [8] and in [9] was over 100 µM in each case.
